Blank lines part the entries; values can stand above or below the compound they belong to. The source made the active and inactive calls. The calls are words filed in the database; no cut-off is given here.
Experiments:
[1] = MRT (0 to infinity) in C57BL/6 mouse at 20 mg/kg, iv by LC-MS/MS analysis; format: ADME, organism-based; conditions: in vivo
[2] = biological target: T1, Protein deacetylase HDAC6 (Mus musculus) (UniProt Q9Z2V5); experiment: In vivo inhibition of HDAC6 in brain of chronic unpredictable mild stress C57BL/6 mouse model by IHC analysis; format: functional, organism-based
T1 sequence (whole entry): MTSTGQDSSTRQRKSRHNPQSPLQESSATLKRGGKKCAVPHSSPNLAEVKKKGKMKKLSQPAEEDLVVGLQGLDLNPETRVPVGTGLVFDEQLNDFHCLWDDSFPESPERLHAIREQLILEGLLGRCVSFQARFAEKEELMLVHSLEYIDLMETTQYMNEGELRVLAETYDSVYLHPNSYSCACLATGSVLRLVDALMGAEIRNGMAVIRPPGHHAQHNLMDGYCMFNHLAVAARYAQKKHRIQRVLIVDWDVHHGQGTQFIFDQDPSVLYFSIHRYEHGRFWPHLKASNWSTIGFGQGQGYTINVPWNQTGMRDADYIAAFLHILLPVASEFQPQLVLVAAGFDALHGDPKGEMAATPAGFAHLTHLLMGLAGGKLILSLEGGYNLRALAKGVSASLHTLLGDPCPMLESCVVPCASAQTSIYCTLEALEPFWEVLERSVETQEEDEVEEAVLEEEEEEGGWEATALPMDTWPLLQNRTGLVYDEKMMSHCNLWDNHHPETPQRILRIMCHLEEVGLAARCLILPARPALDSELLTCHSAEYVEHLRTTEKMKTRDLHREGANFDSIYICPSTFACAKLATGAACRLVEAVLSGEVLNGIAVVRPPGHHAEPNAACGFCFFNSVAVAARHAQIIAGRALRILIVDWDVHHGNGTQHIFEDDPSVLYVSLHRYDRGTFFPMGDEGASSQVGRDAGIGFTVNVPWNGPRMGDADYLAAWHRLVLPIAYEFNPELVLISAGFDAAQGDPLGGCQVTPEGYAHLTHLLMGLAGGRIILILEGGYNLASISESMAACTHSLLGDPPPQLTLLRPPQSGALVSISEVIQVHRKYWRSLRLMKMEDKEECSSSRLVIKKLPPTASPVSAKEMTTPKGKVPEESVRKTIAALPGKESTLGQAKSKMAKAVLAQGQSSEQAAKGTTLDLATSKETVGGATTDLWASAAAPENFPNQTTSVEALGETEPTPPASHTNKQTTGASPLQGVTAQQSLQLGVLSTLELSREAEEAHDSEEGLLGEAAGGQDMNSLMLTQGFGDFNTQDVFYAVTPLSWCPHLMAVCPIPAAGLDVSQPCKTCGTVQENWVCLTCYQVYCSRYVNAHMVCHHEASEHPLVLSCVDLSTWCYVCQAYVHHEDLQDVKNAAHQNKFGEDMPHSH

Mus musculus [3] = experiment: Antidepressant activity in chronic unpredictable mild stress C57BL/6 mouse model assessed as reduction in immobility time at 20 mg/kg, ip qd for 21 days by tail suspension test; format: functional, organism-based; conditions: time 21.0 day
[4] = Toxicity in chronic unpredictable mild stress C57BL/6 mouse model assessed as animal death at 20 mg/kg, ip qd for 21 days; format: organism-based; conditions: in vivo, 504 h, time 21 day
[5] = Toxicity in chronic unpredictable mild stress C57BL/6 mouse model assessed as damage in organs at 20 mg/kg, ip qd for 21 days by H and E staining based analysis; format: organism-based; conditions: in vivo, 504 h, time 21 day
[6] = Toxicity in chronic unpredictable mild stress C57BL/6 mouse model assessed as histomorphological changes at 20 mg/kg, ip qd for 21 days; format: organism-based; conditions: in vivo, 504 h, time 21 day
[7] = Drug concentration in brain of C57BL/6 mouse at 1 mg/kg, ip measured for 0.5 hrs by LC-MS/MS analysis; format: ADME, organism-based; conditions: read-out: Ct
[8] = Drug concentration in plasma of C57BL/6 mouse at 1 mg/kg, ip measured for 4 hrs by LC-MS/MS analysis; format: ADME, organism-based
[9] = Drug concentration in plasma of C57BL/6 mouse at 1 mg/kg, ip measured for 0.5 hrs by LC-MS/MS analysis; format: ADME, organism-based
[10] = AUC (0 to infinity) in C57BL/6 mouse at 20 mg/kg, iv by LC-MS/MS analysis; format: ADME, organism-based; conditions: in vivo
[11] = Ratio of drug concentration in brain to plasma of C57BL/6 mouse at 1 mg/kg, ip measured for 4 hrs by LC-MS/MS analysis; format: ADME, organism-based; conditions: read-out: BPR
[12] = Drug concentration in brain of C57BL/6 mouse at 1 mg/kg, ip measured for 4 hrs by LC-MS/MS analysis; format: ADME, organism-based; conditions: read-out: Ct
[13] = Drug concentration in brain of C57BL/6 mouse at 1 mg/kg, ip measured for 1 hr by LC-MS/MS analysis; format: ADME, organism-based; conditions: read-out: Ct
[14] = AUC (0 to infinity) in C57BL/6 mouse at 20 mg/kg, ip by LC-MS/MS analysis; format: ADME, organism-based; conditions: in vivo
[15] = Ratio of drug concentration in brain to plasma of C57BL/6 mouse at 1 mg/kg, ip measured for 1 hr by LC-MS/MS analysis; format: ADME, organism-based; conditions: read-out: BPR
[16] = Half life in C57BL/6 mouse at 20 mg/kg, ip by LC-MS/MS analysis; format: ADME, organism-based; conditions: in vivo
Mus musculus [17] = experiment: Antidepressant activity in chronic unpredictable mild stress C57BL/6 mouse model assessed as shorter feeding latency to eat at 20 mg/kg, ip qd for 21 days by novelty-suppressed feeding test; format: functional, organism-based; conditions: time 21.0 day
[18] = MRT (0 to infinity) in C57BL/6 mouse at 20 mg/kg, ip by LC-MS/MS analysis; format: ADME, organism-based; conditions: in vivo
[19] = Cmax in C57BL/6 mouse at 20 mg/kg, iv by LC-MS/MS analysis; format: ADME, organism-based; conditions: in vivo
[20] = Tmax in C57BL/6 mouse at 20 mg/kg, ip by LC-MS/MS analysis; format: ADME, organism-based; conditions: in vivo
[21] = Ratio of drug concentration in brain to plasma of C57BL/6 mouse at 1 mg/kg, ip measured for 0.5 hrs by LC-MS/MS analysis; format: ADME, organism-based; conditions: read-out: BPR
[22] = […] bioavailability in C57BL/6 mouse at 20 mg/kg by LC-MS/MS analysis; format: ADME, organism-based; conditions: in vivo
Mus musculus [23] = experiment: Antidepressant activity in chronic unpredictable mild stress C57BL/6 mouse model assessed as longer duration spent in central area of open field at 20 mg/kg, ip qd for 21 days by open field test; format: functional, organism-based; conditions: time 21.0 day
[24] = Cmax in C57BL/6 mouse at 20 mg/kg, ip by LC-MS/MS analysis; format: ADME, organism-based; conditions: in vivo
[25] = Drug concentration in plasma of C57BL/6 mouse at 1 mg/kg, ip measured for 1 hr by LC-MS/MS analysis; format: ADME, organism-based
[26] = Toxicity in chronic unpredictable mild stress C57BL/6 mouse model assessed as abnormality in organs at 20 mg/kg, ip qd for 21 days by H and E staining based analysis; format: organism-based; conditions: in vivo, 504 h, time 21 day
[27] = Half life in C57BL/6 mouse at 20 mg/kg, iv by LC-MS/MS analysis; format: ADME, organism-based; conditions: in vivo
Mus musculus [28] = experiment: Antidepressant activity in chronic unpredictable mild stress C57BL/6 mouse model assessed as longer duration spent in central area at 20 mg/kg, ip qd for 21 days by open field test; format: functional, organism-based; conditions: time 21.0 day
Mus musculus [29] = species: Mus musculus; experiment: Upregulation of tubulin acetylation in brain of chronic unpredictable mild stress C57BL/6 mouse model by IHC analysis; format: functional, organism-based
[30] = Drug uptake in striatum of chronic unpredictable mild stress C57BL/6 mouse model by PET imaging analysis; format: ADME, tissue-based; conditions: in vivo
[31] = Drug uptake in lung of chronic unpredictable mild stress C57BL/6 mouse model by PET imaging analysis; format: ADME, tissue-based; conditions: in vivo
[32] = Drug uptake in spleen of chronic unpredictable mild stress C57BL/6 mouse model by PET imaging analysis; format: ADME, tissue-based; conditions: in vivo
[33] = Drug uptake in heart of chronic unpredictable mild stress C57BL/6 mouse model by PET imaging analysis; format: ADME, tissue-based; conditions: in vivo
[34] = Drug uptake in liver of chronic unpredictable mild stress C57BL/6 mouse model by PET imaging analysis; format: ADME, tissue-based; conditions: in vivo
[35] = Drug uptake in hypothalamus of chronic unpredictable mild stress C57BL/6 mouse model by PET imaging analysis; format: ADME, tissue-based; conditions: in vivo
[36] = Drug uptake in kidney of chronic unpredictable mild stress C57BL/6 mouse model by PET imaging analysis; format: ADME, tissue-based; conditions: in vivo
[37] = Drug uptake in hippocampus of chronic unpredictable mild stress C57BL/6 mouse model by PET imaging analysis; format: ADME, tissue-based; conditions: in vivo

Compound: Cc1ccc2c(n1)N(Cc1ccc(C(=O)NO)cc1F)CCC2
MRT inf [1]: 17.4 min
inhibition [2]: Active
Activity (Mus musculus [3]): Active
Activity [4]: Non-toxic
Activity [5]: Non-toxic
Activity [6]: Non-toxic
concentration at 0.5 h [7]: 26.5 ng/mL
concentration at 4 h [8]: 0.21 ng/mL
concentration at 0.5 h [9]: 3.3 ng/mL
AUC(0-inf) [10]: 1090 ng·h/mL
Kp at 4 h [11]: 2.1
concentration at 4 h [12]: 0.42 ng/mL
concentration at 1 h [13]: 10.3 ng/mL
AUC(0-inf) [14]: 522 ng·h/mL
Kp at 1 h [15]: 3.9
half-life [16]: 54.6 min
Activity (Mus musculus [17]): Active
MRT inf [18]: 24 min
Cmax [19]: 3600 ng/mL
Tmax [20]: 4.98 min
Kp at 0.5 h [21]: 7.9
bioavailability [22]: 47.7%
Activity (Mus musculus [23]): Active
Cmax [24]: 1510 ng/mL
concentration at 1 h [25]: 2.6 ng/mL
Activity [26]: Non-toxic
half-life [27]: 33 min
Activity (Mus musculus [28]): Active
Activity (Mus musculus [29]): Active

Drug uptake [30]: Active
Drug uptake [31]: Active
Drug uptake [32]: Active
Drug uptake [33]: Active
Drug uptake [34]: Active
Drug uptake [35]: Active
Drug uptake [36]: Active
Drug uptake [37]: Active
Compound: CN(Cc1ccc(C(=O)NO)cc1[18F])CC12CC3CC(CC(C3)C1)C2

From ChEMBL document CHEMBL6092157, “PET imaging assist investigation of HDAC6 expression change in MDD and evaluating antidepressant efficacy of a newly developed HDAC6 inhibitor” (Eur J Med Chem, 2024)
